Values after ≈ are worked out from the molar mass of the structure shown. Non-standard residues stand in square brackets, D forms with d. Residues, ends and D or L forms follow the SMILES beside them. N(1-naphthylmethyl)Gly = O=C(O)CNCc1cccc2ccccc12; d1Nal = N[C@H](Cc1cccc2ccccc12)C(=O)O; N(4-MeBn)Gly = Cc1ccc(CNCC(=O)O)cc1; dNle = CCCC[C@@H](N)C(=O)O; NBuGly = CCCCNCC(=O)O; Nlys = NCCCCNCC(=O)O
How the values were obtained:
[1] = system: Methicillin sensitive Staphylococcus pseudintermedius (26916); assay type: cell-based; conditions: 18 h
[2] = system: Methicillin resistant Staphylococcus pseudintermedius, (C22963); assay type: cell-based; conditions: 18 h
[3] = system: Staphylococcus aureus (ATCC 29213); assay type: cell-based; conditions: ATCC 29213, 18 h
[4] = system: Pseudomonas aeruginosa (ATCC 27853); assay type: cell-based; conditions: ATCC 27853, 18 h
Method: To explore the antimicrobial activity of the library of peptides and peptidomimetics, they were tested against Acinetobacter baumannii, Corynebacterium auriscanis, Escherichia coli, Enterococcus faecalis, Enterococcus faecium, Klebsiella pneumonia, Proteus mirabilis, and Pseudomonas aeruginosa. Bacteria grown on agar plates for 18 h at 37 °C were diluted to ~1 × 10^8 CFU/mL in Mueller–Hinton broth (MHB). Two-fold serial dilutions of peptides and peptidomimetics in MHB II were inoculated with bacteria to achieve a final concentration of 5 × 10^5 CFU/mL in polypropylene 96 U-well microtiter plates (Almeco, Esbjerg, Denmark), followed by incubation at 37 °C in ambient air for 18 h. The MIC values were determined as the lowest concentration showing no visible bacterial growth. Experiments were performed twice (in technical triplicates) on two different days.

red blood cell (RBC) = conditions: 0.5% RBC suspension in PBS, 1 h, 37 °C, read at 414 nm, normalized to mellitin and PBS, triplicates
Method: Briefly, 75 µL of peptide in PBS was mixed with 75 µL of a 0.5% red blood cell (RBC) suspension in PBS, and incubated for 1 h at 37 °C. The hemoglobin release was then measured at 414 nm and normalized, using mellitin as positive control and PBS as negative control. Experiments were done in triplicates.

Compound	MIC MSSP [1]	MIC MRSP [2]	MIC SA [3]	MIC PA [4]	HA, percentage of hemolysis at 150 µM (red blood cell (RBC))
CCCCN(CC(N)=O)C(=O)CN(CCCCN)C(=O)CN(Cc1cccc2ccccc12)C(=O)CN(CCCCN)C(=O)CN(Cc1ccc(C)cc1)C(=O)CN(Cc1cccc2ccccc12)C(=O)CN(CCCCN)C(=O)CN [compound 1] (H-G[Nlys][N(1-naphthylmethyl)Gly][N(4-MeBn)Gly][Nlys][N(1-naphthylmethyl)Gly][Nlys][NBuGly]-NH2; N-terminus assumed)	4 µg/mL (≈ 3.55 µM)	4 µg/mL (≈ 3.55 µM)	16 µg/mL (≈ 14.2 µM)	32 µg/mL (≈ 28.4 µM)	42%
CCCCN(CC(N)=O)C(=O)CN(CCCCN)C(=O)CN(Cc1cccc2ccccc12)C(=O)CN(CCCCN)C(=O)CN(Cc1ccc(C)cc1)C(=O)CN(Cc1cccc2ccccc12)C(=O)CNC(=O)CNCCCCN [compound 2] (H-[Nlys]G[N(1-naphthylmethyl)Gly][N(4-MeBn)Gly][Nlys][N(1-naphthylmethyl)Gly][Nlys][NBuGly]-NH2; N-terminus assumed)	16 µg/mL (≈ 14.2 µM)	8 µg/mL (≈ 7.1 µM)	16 µg/mL (≈ 14.2 µM)	64 µg/mL (≈ 56.8 µM)	48%
CCCCN(CC(N)=O)C(=O)CN(CCCCN)C(=O)CN(Cc1cccc2ccccc12)C(=O)CN(CCCCN)C(=O)CN(Cc1ccc(C)cc1)C(=O)CNC(=O)CN(CCCCN)C(=O)CNCCCCN [compound 3] (H-[Nlys][Nlys]G[N(4-MeBn)Gly][Nlys][N(1-naphthylmethyl)Gly][Nlys][NBuGly]-NH2; N-terminus assumed)	64 µg/mL (≈ 60.5 µM)	64 µg/mL (≈ 60.5 µM)	>64 µg/mL	>64 µg/mL	56%
CCCCN(CC(N)=O)C(=O)CN(CCCCN)C(=O)CN(Cc1cccc2ccccc12)C(=O)CN(CCCCN)C(=O)CNC(=O)CN(Cc1cccc2ccccc12)C(=O)CN(CCCCN)C(=O)CNCCCCN [compound 4] (H-[Nlys][Nlys][N(1-naphthylmethyl)Gly]G[Nlys][N(1-naphthylmethyl)Gly][Nlys][NBuGly]-NH2; N-terminus assumed)	64 µg/mL (≈ 58.5 µM)	32 µg/mL (≈ 29.2 µM)	>64 µg/mL	>64 µg/mL	40%
CCCCN(CC(N)=O)C(=O)CN(CCCCN)C(=O)CN(Cc1cccc2ccccc12)C(=O)CN(CCCCN)C(=O)[C@@H](Cc1ccccc1)NC(=O)[C@@H](Cc1cccc2ccccc12)NC(=O)[C@@H](CCCCN)NC(=O)[C@H](N)CCCCN [compound 14] (H-[dK][dK][d1Nal][dF][Nlys][N(1-naphthylmethyl)Gly][Nlys][NBuGly]-NH2; N-terminus assumed)	4 µg/mL (≈ 3.38 µM)	4 µg/mL (≈ 3.38 µM)	16 µg/mL (≈ 13.5 µM)	64 µg/mL (≈ 54 µM)	
CCCC[C@@H](NC(=O)CN(CCCCN)C(=O)[C@@H](Cc1cccc2ccccc12)NC(=O)CN(CCCCN)C(=O)[C@@H](Cc1ccccc1)NC(=O)[C@@H](Cc1cccc2ccccc12)NC(=O)CN(CCCCN)C(=O)CNCCCCN)C(N)=O [compound 15] (H-[Nlys][Nlys][d1Nal][dF][Nlys][d1Nal][Nlys][dNle]-NH2; N-terminus assumed)	4 µg/mL (≈ 3.38 µM)	4 µg/mL (≈ 3.38 µM)	32 µg/mL (≈ 27 µM)	>64 µg/mL	
CCCCN(CC(N)=O)C(=O)[C@@H](CCCCN)NC(=O)CN(Cc1cccc2ccccc12)C(=O)[C@@H](CCCCN)NC(=O)CN(Cc1ccc(C)cc1)C(=O)CN(Cc1cccc2ccccc12)C(=O)[C@@H](CCCCN)NC(=O)[C@H](N)CCCCN [compound 16] (H-[dK][dK][N(1-naphthylmethyl)Gly][N(4-MeBn)Gly][dK][N(1-naphthylmethyl)Gly][dK][NBuGly]-NH2; N-terminus assumed)	4 µg/mL (≈ 3.34 µM)	4 µg/mL (≈ 3.34 µM)	16 µg/mL (≈ 13.3 µM)	64 µg/mL (≈ 53.4 µM)	

Reference: paper PMC6470533, “Structure–Activity Study, Characterization, and Mechanism of Action of an Antimicrobial Peptoid D2 and Its D- and L-Peptide Analogues” (Molecules, 2019)
